Measurements: paper PMC12766724, “Synthesis, Anthelmintic Activity, and Mechanism of Action of 5‑Aryl‑1H‑indoles” (Journal of Agricultural and Food Chemistry, 2025)

Assays:
[1] = system: C. elegans CB211 lev-1(e211) IV.; assay: Chitinase assay (reproductive capacity); assay type: in vivo; details: Caenorhabditis elegans; levamisole-resistant strain
Protocol: (§1) C. elegans strains used in this study were N2 (wild-type), levamisole-resistant strains ZZ15 (lev-8(x15) X) and […] (lev-1(e211) IV), ivermectin-resistant strain DA1316 (avr-14(ad1305) I; avr-15(vu227) glc-1(pk54) V), mebendazole-resistant strain […] (ben-1(e1880) III), and three strains with mutations in succinate dehydrogenase, RP2699, RP2700, and RP2702. The worms were cultivated on Nematode Growth Medium agar plates seeded with Escherichia coli OP50 in 20 °C according to the standard cultivation protocols. Strains RP2699, RP2700, and RP2702 were generated by Prof. Peter Roy’s group. All other strains and bacteria were purchased from the Caenorhabditis Genetics Center (CGC, Minneapolis, MN).
(§2) The effect of compounds on C. elegans was evaluated using the Chitinase assay as we described previously.
(§3) Lastly, strain DA1316 has mutations in three genes encoding subunits of the glutamate-gated chloride channel and is highly resistant to avermectins.

[2] = system: C. elegans CB3474 ben-1(e1880) III.; assay: Chitinase assay (reproductive capacity); assay type: in vivo; details: Caenorhabditis elegans; mebendazole-resistant strain
Protocol: as §1, §2, §3

[3] = system: C. elegans DA1316 avr-14(ad1305) I; avr-15(vu227) glc-1(pk54) V.; assay: Chitinase assay (reproductive capacity); assay type: in vivo; details: Caenorhabditis elegans; ivermectin-resistant strain
Protocol: as §1, §2, §3

[4] = system: C. elegans ZZ15 lev-8(x15) X.; assay: Chitinase assay (reproductive capacity); assay type: in vivo; details: Caenorhabditis elegans; levamisole-resistant strain
Protocol: as §1, §2, §3

[5] = system: Heterodera schachtii second-stage juveniles (J2); assay: Motility on WMicrotracker ONE; assay type: in vivo
Method in brief: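 Second-stage juveniles of H. schachtii, reared on in vitro mustard roots on modified KNOP medium, were exposed to compounds in microtiter wells. Motility was scored as activity counts, i.e. interruptions of infrared microbeams passing through each well.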

[6] = system: Arabidopsis thaliana Col-0; assay: Germination rate and phytotoxicity; assay type: in vivo; details: for average fraction of germinated seeds: 5 DPS; for main root length / plant weight: 10 DPS
Method in brief: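 Sterilized Col-0 seeds sown on 1/2 MS with compounds at 5, 10, 50 and 100 μM in 0.3% DMSO (DMSO mock), grown under 16 h light/8 h dark at 22 °C/20 °C. Germination rate scored at day 5; primary root length and seedling weight after further 5 days.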

Skin fibroblasts (BJ) = assay: Resazurin assay, 3-day treatment; assay type: cell-based, human; details: for Average viability (signal intensity relative to control): BJ
[7] = system: human keratinocytes (HaCaT); assay: Resazurin assay, 3-day treatment; assay type: cell-based
[8] = 10 µM group, initial (prior to the treatment)
[9] = 50 µM group, initial (prior to the treatment)
[10] = 100 µM group, initial (prior to the treatment)

SMILES	IC50 [1] [µM]	IC50 [2] [µM]	IC50 [3] [µM]	IC50 [4] [µM]	average activity counts [5, 8]	average activity counts ([5]; 10 µM, 48 h)	average activity counts ([5]; 10 µM, 72 h)	average activity counts [5, 9]	average activity counts ([5]; 50 µM, 48 h)	average activity counts ([5]; 50 µM, 72 h)	average activity counts [5, 10]	average activity counts ([5]; 100 µM, 48 h)	average activity counts ([5]; 100 µM, 72 h)	average fraction of germinated seeds ([6]; 5 µM)	main root length ([6]; 5 µM) [mm]	plant weight ([6]; 5 µM) [mg]	average fraction of germinated seeds ([6]; 10 µM)	main root length ([6]; 10 µM) [mm]	plant weight ([6]; 10 µM) [mg]	average fraction of germinated seeds ([6]; 50 µM)	also measured
Fc1ccc(-c2ccc3[nH]ccc3c2)cc1 [i-20]	9.02 ± 0.75	9.97 ± 1.06	10.4 ± 1.09	11 ± 0.51	165	169	176	174	81	27	180	4	5	0.96	39.53	30.62	0.91	34.00	27.14	0.96	decrease in mean activity counts ([5]; 100 µM, 72 h): 97%; main root length ([6]; 50 µM): 31.49 mm; plant weight ([6]; 50 µM): 24.67 mg; average fraction of germinated seeds ([6]; 100 µM): 0.95; main root length ([6]; 100 µM): 25.82 mm; plant weight ([6]; 100 µM): 16.94 mg; Average viability (signal intensity relative to control) (Skin fibroblasts (BJ); 10 µM): 0.96 ± 0.01; Average viability (signal intensity relative to control) (Skin fibroblasts (BJ); 20 µM): 0.98 ± 0.02; Average viability (signal intensity relative to control) (Skin fibroblasts (BJ); 40 µM): 0.96 ± 0.03; Average viability (signal intensity relative to control) ([7]; 10 µM): 0.97 ± 0.01; Average viability (signal intensity relative to control) ([7]; 20 µM): 0.99 ± 0.02; Average viability (signal intensity relative to control) ([7]; 40 µM): 0.94 ± 0.02
Clc1ccc(-c2ccc3[nH]ccc3c2)cc1 [i-19]	6.8 ± 1.95	6.61 ± 0.85	5.15 ± 1.01	5.92 ± 0.39	190	179	192	183	90	18	195	121	30	0.93	38.83	32.28	0.96	37.74	30.72	0.97	decrease in mean activity counts ([5]; 100 µM, 72 h): 85%; main root length ([6]; 50 µM): 33.27 mm; plant weight ([6]; 50 µM): 24.85 mg; average fraction of germinated seeds ([6]; 100 µM): 0.93; main root length ([6]; 100 µM): 19.96 mm; plant weight ([6]; 100 µM): 15.22 mg; Average viability (signal intensity relative to control) (Skin fibroblasts (BJ); 10 µM): 0.98 ± 0.02; Average viability (signal intensity relative to control) (Skin fibroblasts (BJ); 20 µM): 1.02 ± 0.06; Average viability (signal intensity relative to control) (Skin fibroblasts (BJ); 40 µM): 1 ± 0.03; effect on the viability of fibroblasts (Skin fibroblasts (BJ); up to 40 μM): no effect; Average viability (signal intensity relative to control) ([7]; 10 µM): 1.01 ± 0.02; Average viability (signal intensity relative to control) ([7]; 20 µM): 1.02 ± 0.05; Average viability (signal intensity relative to control) ([7]; 40 µM): 0.86 ± 0.1; decrease in viability ([7]; 40 µM): approximately 5%

The next lines start with results.

IC50 [1] [µM]	IC50 [2] [µM]	IC50 [3] [µM]	IC50 [4] [µM]	SMILES	average activity counts [5, 8]	average activity counts ([5]; 10 µM, 48 h)	average activity counts ([5]; 10 µM, 72 h)	average activity counts [5, 9]	average activity counts ([5]; 50 µM, 48 h)	average activity counts ([5]; 50 µM, 72 h)	average activity counts [5, 10]	average activity counts ([5]; 100 µM, 48 h)	average activity counts ([5]; 100 µM, 72 h)	average fraction of germinated seeds ([6]; 5 µM)	main root length ([6]; 5 µM) [mm]	plant weight ([6]; 5 µM) [mg]	average fraction of germinated seeds ([6]; 10 µM)	main root length ([6]; 10 µM) [mm]	plant weight ([6]; 10 µM) [mg]	average fraction of germinated seeds ([6]; 50 µM)	also measured
8.69 ± 1.26	8.32 ± 0.74	7.59 ± 1.99	8.03 ± 1.13	CCCOc1cccc(-c2ccc3[nH]ccc3c2)c1 [i-12]	192	200	158	176	195	136	195	166	177	0.96	37.25	32.51	0.93	38.66	34.91	0.93	main root length ([6]; 50 µM): 35.82 mm; plant weight ([6]; 50 µM): 27.55 mg; Average viability (signal intensity relative to control) (Skin fibroblasts (BJ); 10 µM): 0.96 ± 0.01; Average viability (signal intensity relative to control) (Skin fibroblasts (BJ); 20 µM): 1.04 ± 0.05; Average viability (signal intensity relative to control) (Skin fibroblasts (BJ); 40 µM): 0.96 ± 0.03; Average viability (signal intensity relative to control) ([7]; 10 µM): 1.06 ± 0.14; Average viability (signal intensity relative to control) ([7]; 20 µM): 1.09 ± 0.13; Average viability (signal intensity relative to control) ([7]; 40 µM): 1.06 ± 0.09
10.1 ± 0.39	9.01 ± 0.78	10.4 ± 0.41	10.6 ± 0.48	FC(F)(F)Oc1ccc(-c2ccc3[nH]ccc3c2)cc1 [i-21]	175	170	146	177	142	102	187	150	104	0.98	41.56	34.37	1.00	42.21	36.56	1.00	main root length ([6]; 50 µM): 35.82 mm; plant weight ([6]; 50 µM): 24.65 mg; average fraction of germinated seeds ([6]; 100 µM): 0.96; main root length ([6]; 100 µM): 30.90 mm; plant weight ([6]; 100 µM): 21.97 mg; Average viability (signal intensity relative to control) (Skin fibroblasts (BJ); 10 µM): 0.94 ± 0.02; Average viability (signal intensity relative to control) (Skin fibroblasts (BJ); 20 µM): 0.96 ± 0.04; Average viability (signal intensity relative to control) (Skin fibroblasts (BJ); 40 µM): 0.87 ± 0.03; Average viability (signal intensity relative to control) ([7]; 10 µM): 0.96 ± 0.02; Average viability (signal intensity relative to control) ([7]; 20 µM): 0.96 ± 0.04; Average viability (signal intensity relative to control) ([7]; 40 µM): 0.74 ± 0.11
8.8 ± 1.21	8.28 ± 0.99	8.45 ± 1.36	7.63 ± 0.91	CCCOc1ccc(-c2ccc3[nH]ccc3c2)cc1 [i-13]	166	159	141	192	183	163	192	144	150	0.98	40.24	37.8	0.93	39.42	36.95	0.91	main root length ([6]; 50 µM): 36.26 mm; plant weight ([6]; 50 µM): 26.29 mg; Average viability (signal intensity relative to control) (Skin fibroblasts (BJ); 10 µM): 0.97 ± 0.01; Average viability (signal intensity relative to control) (Skin fibroblasts (BJ); 20 µM): 1 ± 0.05; Average viability (signal intensity relative to control) (Skin fibroblasts (BJ); 40 µM): 0.98 ± 0.03; Average viability (signal intensity relative to control) ([7]; 10 µM): 0.97 ± 0.01; Average viability (signal intensity relative to control) ([7]; 20 µM): 0.98 ± 0.02; Average viability (signal intensity relative to control) ([7]; 40 µM): 0.91 ± 0.04
